Each structure is given as a SMILES string. Where two headings read alike, the source gives them in different places.

Assay [1] relates to SDH-KO-HRAS cells (SDHB-deficient). Briefly: Cellular / differential toxicity assay (CellTiter-Glo, 3 days). Particulars: toxicity, SDH-KO cells, 3 days, CellTiter-Glo, read-out: EC50 (uM) SDH-KO-HTAS-C17. Type of assay: cell-based, murine. On the procedure:
(§1) Identification of compounds that target specifically SDH-deficient cells was done by screening a library of small-molecule by using a differential toxicity screen with SDHB-proficient vs. SDHB-deficient cells (the […] cells were described in Cardaci 2015).
(§2) Cells Used for the Differential Assays: SDH-WT; SDH-KO-HRAS
(§3) Cell Culture Conditions: • Medium: DMEM-F12 medium+1 mM Glutamine+3% FBS • Plates: 96 well plate—Black, clear flat bottom • Incubation time: 3 days • Compound concentration: 10 point dilution starting from 10 uM to 0.0065 uM or a lower range when needed. • Viability assay at the end of incubation: Celltiter-Glo (CTG) from Promega.
(§4) Protocol: • Day 1: Plate cells in 96 well plate together with the appropriate concentration of compound.
(§5) Incubate for 3 days at 37° C. in 5% CO2 tissue culture incubator. • Day 4: Check viability of cells by adding CTG reagent and read luminescence in plate reader
(§6) SDH-WT and SDH-KO cells were grown in DMEM F12 supplemented with 1 mM Glutamine+3% FBS were treated with different concentrations of the indicated compounds in FIG. 11. Cell viability was determined 72 hours later by CellTiter Glue reagent (Promega), the luminescence was measured with ClarioStar reader (BMG) and the EC50s were calculated by Prism.
(§7) SDH-WT and SDH-KO cells were grown in DMEM F12 supplemented with 1 mM Glutamine+3% FBS were treated with different concentrations of the indicated compounds. Cell viability was determined 72 hours later by CellTiter Glue reagent (Promega), the luminescence was measured with ClarioStar reader (BMG) and the EC50s were calculated by Prism.
(§8) The cells were grown in DMEM F12 supplemented with 1 mM Glutamine+3% FBS were treated with different concentrations of the indicated compounds. Cell viability was determined 72 hours later by CellTiter Glue reagent (Promega), the luminescence was measured with ClarioStar reader (BMG) and the EC50s were calculated by Prism. Murine SDHB-WT/KO, HRAS transformed isogenic pair (FIG. 12A); UOK269, Human Tumor-derived SDHB-deficient RCC in their WT counterpart with re-expression of SDHB (FIG. 12B); and ACHN, RCC cells, and their SDHB-KO (SDHB CRISPRed out) isogenic cells (FIG. 12C).

The subject of assay [2] is SDH-WT cells. Described as above. Type of assay: cell-based, murine. Particulars: toxicity, SDH-WT cells, 3 days, CellTiter-Glo, read-out: EC50 (uM) SDH-WT. As for the experimental part: as §1, §2, §3, §4, §5, §6, §7, §8

Consider `CCCCN(CC)c1ncnc2c1sc1nc3c(cc12)COC(C)(C)C3` [Compound 256], for which the EC50 in assay [1] (Mus musculus, 72 h) fell in the range of 3 to 10 µM; in assay [2] (Mus musculus, 72 h) it was 3 to 10 µM.
For `COC(=O)c1ccc(CCNc2ncnc3c2sc2nc4c(cc23)COC(C)(C)C4)cc1` [Compound 130], the EC50 was more than 10 µM in assay [1] (Mus musculus, 72 h) and more than 10 µM in assay [2] (Mus musculus, 72 h).
On to `CC(=O)OCC(=O)Cc1ccc(CCNc2ncnc3c2sc2nc4c(cc23)COC(C)(C)C4)cc1N` [Compound 183], for which the EC50 was less than 1 µM in assay [1] (Mus musculus, 72 h) and 3 to 10 µM in assay [2] (Mus musculus, 72 h).
For `COc1ccc(CCNc2ncnc3c2sc2nc4c(cc23)CCC4)cc1F` [Compound 108, N-(3-Fluoro-4-methoxyphenethyl)-8,9-dihydro-7H-cyclopenta[5′,6′]pyrido-[3′,2′:4,5]thieno[3,2-d]pyrimidin-4-amine] the same measures were more than 10 µM and 1 to 3 µM.
With `COCOCCOCCOCCOCc1c2c(nc3sc4c(NCCc5ccc6[nH]cnc6c5)ncnc4c13)CC(C)(C)OC2` [Compound 213], the concentration giving a half-maximal response (EC50) is 1 to 3 µM in assay [1] (Mus musculus, 72 h) and more than 10 µM in assay [2] (Mus musculus, 72 h).
For `Cc1nc(NC(C)Cc2ccccc2)c2sc3nc4c(cc3c2n1)COC(C)(C)C4` (stereo not drawn) [Compound 266] the same measures were more than 10 µM and 3 to 10 µM.
Consider `CCCN(CCC)c1ncnc2c1sc1nc3c(cc12)COC(C)(C)C3` [Compound 300], for which the EC50 in assay [1] (Mus musculus, 72 h) was 3 to 10 µM; in assay [2] (Mus musculus, 72 h) it was 3 to 10 µM.
As to `CC1CCN(c2ncnc3c2sc2nc4c(cc23)COC(C)(C)C4)CC1` [Compound 245], the EC50 in assay [1] (Mus musculus, 72 h) was more than 10 µM; in assay [2] (Mus musculus, 72 h) it was more than 10 µM.
Turning to `CC1(C)Cc2nc3sc4c(NCCc5ccc(O)c(F)c5)ncnc4c3cc2CO1` [Compound 140], the EC50 in assay [1] (Mus musculus, 72 h) is 1 to 3 µM; in assay [2] (Mus musculus, 72 h) it was 3 to 10 µM.
For `CC(=O)OC1CCc2nc3sc4c(NCCc5ccc6[nH]cnc6c5)ncnc4c3cc2C1` (stereo not drawn) [Compound 168] the same measures were less than 1 µM and 1 to 3 µM.
For `CC1(C)Cc2nc3sc4c(NCCOCCO)ncnc4c3cc2CO1` [Compound 284] the same measures were more than 10 µM and more than 10 µM.
The corresponding values for `CC1(C)Cc2nc3sc4c(NCCc5ccc6[nH]cnc6c5)ncnc4c3c(COC3CCOCC3)c2CO1` [Compound 324, N-(2-(1H-Benzo[d]imidazol-5-yl)ethyl)-8,8-dimethyl-11-(((tetrahydro-2H-pyran-4-yl)oxy)methyl)-7,10-dihydro-8H-pyrano[3″,4″:5′,6′]pyrido[3′,2′:4,5]thieno[3,2-d]pyrimidin-4-amine] are less than 1 µM and less than 1 µM.
Turning to `CC1(C)Cc2nc3sc4c(NN)ncnc4c3cc2CO1` [Compound 295], the EC50 is more than 10 µM in assay [1] (Mus musculus, 72 h) and more than 10 µM in assay [2] (Mus musculus, 72 h).
Take `Cc1nc(N2CCOCC2)c2sc3nc4c(cc3c2n1)COC(C)(C)C4` [Compound 223]: the EC50 in assay [1] (Mus musculus, 72 h) is more than 10 µM; in assay [2] (Mus musculus, 72 h) it was more than 10 µM.
As to `CC1(C)Cc2nc3sc4c(NCCc5ccc6[nH]cnc6c5)nc(-c5ccccc5)nc4c3cc2CO1` [Compound 315], the EC50 lay within 1 to 3 µM in assay [1] (Mus musculus, 72 h) and 3 to 10 µM in assay [2] (Mus musculus, 72 h).
The corresponding values for `Cc1nc(NN)c2sc3nc4c(cc3c2n1)COC(C)(C)C4` [Compound 244] are more than 10 µM and more than 10 µM.
For `CC1(C)Cc2nc3sc4c(NCCc5ccc6[nH]cnc6c5)ncnc4c3c(COC3CCCC3)c2CO1` [Compound 333] the same measures were less than 1 µM and 1 to 3 µM.
Consider `COc1ccc(Nc2ncnc3c2sc2nc4c(cc23)COC(C)(C)C4)cc1OC` [Compound 132], for which the half-maximal effective concentration (EC50) in assay [1] (Mus musculus, 72 h) was more than 10 µM; in assay [2] (Mus musculus, 72 h), more than 10 µM.
Turning to `CC1(C)Cc2nc3sc4c(NCCc5ccc6[nH]cnc6c5)ncnc4c3c(-c3cncs3)c2CO1` [Compound 318], the EC50 was less than 1 µM in assay [1] (Mus musculus, 72 h) and less than 1 µM in assay [2] (Mus musculus, 72 h).
As to `CC1(C)Cc2nc3sc4c(NCCc5ccc6occc6c5)ncnc4c3cc2CO1` [Compound 202], the EC50 in assay [1] (Mus musculus, 72 h) is less than 1 µM; in assay [2] (Mus musculus, 72 h), 3 to 10 µM.
For `CCCCCCCNc1nc(C)nc2c1sc1nc3c(cc12)COC(C)(C)C3` [Compound 241] the same measures were more than 10 µM and more than 10 µM.
The corresponding values for `COc1ccc(CCNc2ncnc3c2sc2ncccc23)cc1F` [Compound 110] are 1 to 3 µM and more than 10 µM.
Turning to `CCCCN(CC)c1nc(C)nc2c1sc1nc3c(cc12)COC(C)(C)C3` [Compound 269], the EC50 in assay [1] (Mus musculus, 72 h) is more than 10 µM; in assay [2] (Mus musculus, 72 h), more than 10 µM.
Take `CC1CCC(C)N(c2ncnc3c2sc2nc4c(cc23)COC(C)(C)C4)C1` (stereo not drawn) [Compound 236]: the EC50 in assay [1] (Mus musculus, 72 h) was more than 10 µM; in assay [2] (Mus musculus, 72 h), more than 10 µM.
`CC1(C)Cc2nc3sc4c(NCCc5ccc6[nH]cnc6c5)ncnc4c3c(COC3CCCCC3)c2CO1` [Compound 327, N-(2-(1H-Benzo[d]imidazol-5-yl)ethyl)-11-((cyclohexyloxy)methyl)-8,8-dimethyl-7,10-dihydro-8H-pyrano[3″,4″:5′,6′]pyrido[3′,2′:4,5]thieno[3,2-d]pyrimidin-4-amine]: the EC50 in assay [1] (Mus musculus, 72 h) was less than 1 µM; in assay [2] (Mus musculus, 72 h), less than 1 µM.
Take `Cc1nc(NC(C)CCc2ccccc2)c2sc3nc4c(cc3c2n1)COC(C)(C)C4` (stereo not drawn) [Compound 265]: the values for the EC50 in assay [1] and in assay [2] were more than 10 µM and 3 to 10 µM, respectively.
For the compound `Cc1nc(NC(C)c2ccccc2)c2sc3nc4c(cc3c2n1)COC(C)(C)C4` (stereo not drawn) [Compound 272], the EC50 was more than 10 µM in assay [1] (Mus musculus, 72 h) and more than 10 µM in assay [2] (Mus musculus, 72 h).
As to `CC1(C)Cc2nc3sc4c(NCCc5cccc(C(=O)O)c5)ncnc4c3cc2CO1` [Compound 113], the EC50 in assay [1] (Mus musculus, 72 h) was 3 to 10 µM; in assay [2] (Mus musculus, 72 h), less than 1 µM.
For `CC1(C)Cc2nc3c(c(S(C)(=O)=O)c2CO1)-c1ncnc(NCCc2ccc4[nH]cnc4c2)c1S3(=O)=O` [Compound 166] the same measures were 3 to 10 µM and 3 to 10 µM.
The corresponding values for `CN(C)CCNc1ncnc2c1sc1nc3c(cc12)COC(C)(C)C3` [Compound 227] are more than 10 µM and more than 10 µM.
As to `CC1(C)Cc2nc3sc4c(NCCc5ccc(-c6cncs6)cc5)ncnc4c3cc2CO1` [Compound 148], the concentration for a half-maximal effect (EC50) in assay [1] (Mus musculus, 72 h) is less than 1 µM; in assay [2] (Mus musculus, 72 h), more than 10 µM.
Consider `CC(=O)CNc1ccc(CCNc2ncnc3c2sc2nc4c(cc23)COC(C)(C)C4)cc1F` [Compound 191], for which the EC50 in assay [1] (Mus musculus, 72 h) was 1 to 3 µM; in assay [2] (Mus musculus, 72 h), 3 to 10 µM.
For `CC1(C)Cc2nc3sc4c(NCCc5ccc(N)c(N)c5)ncnc4c3cc2CO1` [Compound 193] the same measures were less than 1 µM and 1 to 3 µM.
The corresponding values for `CC(C)c1nc(NCCc2ccc3[nH]cnc3c2)c2sc3ncccc3c2n1` [Compound 312, N-(2-(1H-Benzo[d]imidazol-5-yl)ethyl)-2-isopropylpyrido[3′,2′:4,5]thieno[3,2-d]pyrimidin-4-amine] are 3 to 10 µM and 3 to 10 µM.
The corresponding values for `CC(C)C(=O)Nc1ccc(CCNc2ncnc3c2sc2nc4c(cc23)COC(C)(C)C4)cc1[N+](=O)[O-]` [Compound 199] are 1 to 3 µM and 1 to 3 µM.
As for `CC1(C)Cc2nc3sc4c(NCCc5ccc6[nH]cnc6c5)ncnc4c3c(-c3ccccc3)c2CO1` [Compound 206], the EC50 was less than 1 µM in assay [1] (Mus musculus, 72 h) and less than 1 µM in assay [2] (Mus musculus, 72 h).
For the compound `Cc1nc(NCCc2ccc3[nH]cnc3c2)c2sc3ncccc3c2n1` [Compound 309, N-(2-(1H-Benzo[d]imidazol-5-yl)ethyl)-2-methylpyrido[3′,2′:4,5]thieno[3,2-d]pyrimidin-4-amine], the EC50 in assay [1] (Mus musculus, 72 h) was 3 to 10 µM; in assay [2] (Mus musculus, 72 h), more than 10 µM.
The corresponding values for `CC(=O)OC(C)C(=O)Nc1ccc(CCNc2ncnc3c2sc2nc4c(cc23)COC(C)(C)C4)cc1N` (stereo not drawn) [Compound 186] are 1 to 3 µM and 3 to 10 µM.
The corresponding values for `COc1ccc(C2CCN(c3ncnc4c3sc3nc5c(cc34)COC(C)(C)C5)C2)cc1F` (stereo not drawn) [Compound 105] are 3 to 10 µM and 3 to 10 µM.
The corresponding values for `CC1(C)Cc2nc3sc4c(N5CCN(CCO)CC5)ncnc4c3cc2CO1` [Compound 288] are more than 10 µM and more than 10 µM.
`CC1(C)Cc2nc3sc4c(NCCc5ccccn5)ncnc4c3cc2CO1` [Compound 133]: the EC50 in assay [1] (Mus musculus, 72 h) is 3 to 10 µM; in assay [2] (Mus musculus, 72 h) it was more than 10 µM.
The corresponding values for `CCCCCCNc1ncnc2c1sc1nc3c(cc12)COC(C)(C)C3` [Compound 216] are more than 10 µM and more than 10 µM.

(Values after patent US20230084927A1, “GLUCOSE UPTAKE INHIBITORS AND USES THEREOF” (METABOMED LTD., priority 2019, published 2023).)
